{"source": "patent US8247565B2", "about": "“Sirtuin modulating compounds” (Sirtris Pharmaceuticals, Inc., priority 2007, dated 2012)", "key": {"[1]": {"assay": "Salt/free base screening by DSC and TGA (physical stability, polymorphs)", "format": "physicochemical", "settings": "for polymorphism / phase changes on heating (DSC, TGA): thermal range evaluated by DSC/TGA (FIGS. 1, 2)", "experimental": "Eight acceptable (Regulatory and pKa) salts were made of Compound 1, namely with hydrochloric acid, sulfuric acid, methanesulfonic acid, maleic acid, phosphoric acid, L-tartaric acid, citric acid, and malic acid. The resulting salts or the free base were then screened on: • 1) Processing, morphology, polymorphs; • 2) Crystal shape, single stable polymorph; • 3) Physical stability; • 4) Open dish accelerated stability (40° C./75% RH); and • 5) Biorelevant dissolution.\nSince no other thermal transitions are observed in the DSC or TGA results, it appears Compound 1 exists only as a single phase (i.e. no polymorphs) over the thermal range evaluated.\nSince the polymorphic transitions can have significant effects on dissolution and bioavailability of the drug substance, it is practical to select forms of the drug substance that minimize or eliminate the potential for phase transitions."}, "[2]": {"tested_on": "diet induced obesity model (DIO)", "assay": "Blood glucose in diet induced obesity (DIO) mouse model", "format": "in vivo, C57BL/6 male mice", "settings": "DIO mice; for blood glucose vs vehicle: from week 2 onwards (FIGS. 3-5); for week 4 fed glucose test vs vehicle: blood glucose remained lower than vehicle", "from_the_text": "(§1) The purpose of this example was to compare the efficacy of Compound 1 in salt and free base formulations in two different mouse models of diabetes, a diet induced obesity model (DIO) and the Ob/ob mouse. Blood glucose was the main determinant through the experiment of efficacy.\nFor the diet induced obesity model, six week old C57BL/6 male mice (Charles River Labs) were fed a high fat diet (60% calories from fat; Research Diets) for approximately 6 weeks until their body weight reached approximately 40 g. Test compounds were administered daily via oral gavage at the indicated doses. The vehicle used was 2% HPMC and 0.2% DOSS. Individual mouse body weights were measured twice weekly. Every 2 weeks throughout the study, mice from each group were bled via the tail vein for determination of blood glucose. Statistical analysis was completed using the JMP program (Version 6). Data were analyzed by a one way ANOVA with comparison to control using a Dunnett's Test. A p value <0.05 indicated a significant difference between groups.\nCompound 1 in the free base form was then tested in the DIO model."}, "Ob/ob mouse": {"tested_on": "Ob/ob mouse", "assay": "Blood glucose in Ob/ob mouse model", "format": "in vivo", "settings": "ob/ob mice, free base 100 mg/kg", "from_the_text": "as §1\nOb/ob mice are genetically manipulated knockout mice that lack leptin, an important satiety protein that neurologically signals the end of hunger. The leptin mutation is homozygous and a heterozygous strain is included as a control (Ob/+); this group should not show increased weight or blood glucose, aside from the normal effects of being on a high fat diet.\nDuring week 1, there is already a decrease in blood glucose of almost 60 mg/dL from the vehicle group. This trend continued for the fasted glucose at week 2 (FIG. 7) as the Compound 1 group had 158.3 mg/dL glucose compared to 285.3 mg/dL glucose in the vehicle group."}}, "note": "Where a name gives a salt, the structure may show the parent alone."}
{"smiles": "Cc1nc(-c2cccnc2)sc1C(=O)Nc1ccccc1-c1cn2c(CN3CCOCC3)csc2n1", "note": "[HCl salt form of Compound 1]", "values": [{"measurement": "hygroscopicity", "setting": "[1]; TGA weight loss on heating attributed to water loss", "result": "hygroscopic"}, {"measurement": "polymorphism / phase changes on heating (DSC, TGA)", "setting": "[1]", "result": "transitions between polymorphic forms"}]}
{"smiles": "CN(C)C(=N)N=C(N)N", "note": "[metformin, reference compound]", "values": [{"measurement": "blood glucose vs vehicle", "setting": "[2]; 400 mg/kg/day oral gavage", "result": "significant reductions in blood glucose"}]}
{"smiles": "O=C(Nc1ccccc1-c1cn2c(CN3CCNCC3)csc2n1)c1cnc2ccccc2n1", "note": "[Compound 2, N-(2-(3-(piperazin-1-ylmethyl)imidazo[2,1-b]thiazol-6-yl)phenyl)quinoxaline-2-carboxamide]", "values": [{"measurement": "blood glucose vs vehicle", "setting": "[2]; 100 mg/kg/day oral gavage", "result": "significant reductions in blood glucose"}, {"measurement": "week 4 fed glucose test vs vehicle", "setting": "[2]; 100 mg/kg/day", "result": "significance was lost"}]}
{"smiles": "Oc1ccc(C=Cc2cc(O)cc(O)c2)cc1", "note": "[resveratrol, reference compound]", "values": [{"measurement": "blood glucose vs vehicle", "setting": "[2]; 1000 mg/kg/day oral gavage", "result": "significant reductions in blood glucose"}, {"measurement": "week 4 fed glucose test vs vehicle", "setting": "[2]; 1000 mg/kg/day", "result": "significance was lost"}]}
{"smiles": "Cc1nc(-c2cccnc2)sc1C(=O)Nc1ccccc1-c1cn2c(CN3CCOCC3)csc2n1", "note": "[Compound 1, 4-methyl-N-(2-(3-(morpholinomethyl)imidazo[2,1-b]thiazol-6-yl)phenyl)-2-(pyridin-3-yl)thiazole-5-carboxamide]", "values": [{"measurement": "polymorphism / phase changes on heating (DSC, TGA)", "setting": "[1]", "result": "no polymorphs"}, {"measurement": "blood glucose vs vehicle", "setting": "[2]; 100 mg/kg/day oral gavage", "result": "significant reductions in blood glucose"}, {"measurement": "blood glucose vs vehicle group at weeks 2 and 3", "setting": "[2]; free base 100 mg/kg/day, weeks 2 (fed) and 3 (fasted), p value less than 0.01", "result": "significant decrease"}, {"measurement": "decrease in blood glucose from the vehicle group", "setting": "Ob/ob mouse; week 1 (FIG. 6)", "result": "~60", "unit": "mg/dL"}, {"measurement": "fasted blood glucose", "setting": "Ob/ob mouse; week 2 fasted (FIG. 7), vehicle group 285.3 mg/dL, p less than 0.0001", "result": 158.3, "unit": "mg/dL"}, {"measurement": "blood glucose relative to vehicle groups", "setting": "Ob/ob mouse; week 3 fed (FIG. 8)", "result": "significant (p<0.01) decrease"}]}
